Among the data in patent publication US4311837A, “Certain heterocyclic thiomethyl derivatives of 7-(dihalogenated phenylthioacetamido)cephalosporanic acids useful in the treatment of infections caused by _Streptococcus faecalis” (Eli Lilly and Company, priority 1980, dated 1982) are MIC values, retold here.

The assay deals with Streptococcus faecalis. Briefly: In vitro antibacterial activity against eleven strains of Streptococcus faecalis (agar dilution method; tube dilution per footnote). The class given is cell-based. Particulars: Enterococcus faecalis, geometric mean against eleven strains of Streptococcus faecalis. From the text:
[…] faecalis is classified as a species of Group D β-hemolytic streptococci, also known as enterococci. Infections caused by Group D β-hemolytic streptococci, in particular […] faecalis, are generally known to be resistant to cephalosporin antibiotics. The infections caused by Group D streptococci commonly involve the endocardium (endocarditis), the urinary tract, the intestines, the biliary tract, postoperative wounds, and interabdominal abscesses. Endocarditis is clinically a very important disease and is frequently difficult to treat by antibiotic therapy. The disease is commonly treated by infusion of penicillin G in combination with streptomycin or vancomycin. […] The results are shown in Table 1 where the activity is measured by the MIC values, defined as the concentration of the compound capable of inhibiting the growth of the test organism. |In Vitro Antibacterial Activity Against Eleven |Strains of Streptococcus faecalis | *Geometric mean MIC as determined by the tube dilution method against | eleven strains of Streptococcus faecalis.
As for `Cc1nsc(SCC2=C(C(=O)O)N3C(=O)C(NC(=O)CSc4cc(Cl)ccc4Cl)C3SC2)n1` (stereo not drawn), the MIC came out at 1.88 µg/mL. The result for `CC(=O)OCC1=C(C(=O)O)N2C(=O)C(NC(=O)CSc3cc(Cl)ccc3Cl)C2SC1` (stereo not drawn) reads 2 µg/mL. The result for `Cc1nnc(SCC2=C(C(=O)O)N3C(=O)C(NC(=O)CSc4cc(Cl)ccc4Cl)C3SC2)s1` (stereo not drawn) reads 1.29 µg/mL. For the compound `Cn1nnnc1SCC1=C(C(=O)O)N2C(=O)C(NC(=O)CSc3cc(Cl)ccc3Cl)C2SC1` (stereo not drawn), the MIC was 3.11 µg/mL.

As to `Cc1nnc(SCC2=C(C(=O)O)N3C(=O)C(NC(=O)CSc4cc(Cl)ccc4Cl)C3SC2)o1` (stereo not drawn), the minimal inhibitory concentration (MIC) came to 2.13 µg/mL.

On to `Cn1c(SCC2=C(C(=O)O)N3C(=O)C(NC(=O)CSc4cc(Cl)ccc4Cl)C3SC2)nnc(O)c1=O` (stereo not drawn), for which the MIC amounted to 3.76 µg/mL.

`O=C(CSc1cc(Cl)ccc1Cl)NC1C(=O)N2C(C(=O)O)=C(CSc3ncco3)CSC12` (stereo not drawn): the minimum inhibitory concentration (MIC) was 1.88 µg/mL. Next, `O=C(CSc1cc(Cl)ccc1Cl)NC1C(=O)N2C(C(=O)O)=C(CSc3cnsn3)CSC12` (stereo not drawn): 1.37 µg/mL; `Nc1nnc(SCC2=C(C(=O)O)N3C(=O)C(NC(=O)CSc4cc(Cl)ccc4Cl)C3SC2)s1` (stereo not drawn): 4.26 µg/mL; `Cc1nnc(SCC2=C(C(=O)O)N3C(=O)C(NC(=O)CSc4ccc(Cl)c(Cl)c4)C3SC2)s1` (stereo not drawn): 1.76 µg/mL. Consider `O=C(CSc1cc(Cl)ccc1Cl)NC1C(=O)N2C(C(=O)O)=C(CO)CS[C@H]12` (stereo partly drawn) [OH, 7-[2-[(2,5-Dichlorophenyl)thio]acetamido]-3-hydroxymethyl-3-cephem-4-carboxylic acid], for which the minimal inhibitory concentration (MIC) is 3.11 µg/mL. The result for `Cn1nnnc1SCC1=C(C(=O)O)N2C(=O)C(NC(=O)CSc3ccc(Cl)c(Cl)c3)C2SC1` (stereo not drawn) reads 4.83 µg/mL.
